Data taken from patent US7049321B2, “Methods and pharmaceutical compositions for treatment of central and peripheral nervous system disorders and compounds useful therefor” (Israel Institute for Biological Research, priority 2002, dated 2006).
Entries after “also recorded” stand apart in the source; their conditions may differ.

How the values were obtained:
M1 mAChR = target: T1, M1 mAChR (Rattus norvegicus, UniProt P08482); assay: α-APPs secretion in cell cultures stably transfected with the M1 mAChR; format: cell-based; details: for Emax: read-out: α-APPs secretion, % of maximal response of carbachol
T1 construct: expressed in transfected cells; elsewhere rat pheochromocytoma cells
T1 sequence (P08482 1-460): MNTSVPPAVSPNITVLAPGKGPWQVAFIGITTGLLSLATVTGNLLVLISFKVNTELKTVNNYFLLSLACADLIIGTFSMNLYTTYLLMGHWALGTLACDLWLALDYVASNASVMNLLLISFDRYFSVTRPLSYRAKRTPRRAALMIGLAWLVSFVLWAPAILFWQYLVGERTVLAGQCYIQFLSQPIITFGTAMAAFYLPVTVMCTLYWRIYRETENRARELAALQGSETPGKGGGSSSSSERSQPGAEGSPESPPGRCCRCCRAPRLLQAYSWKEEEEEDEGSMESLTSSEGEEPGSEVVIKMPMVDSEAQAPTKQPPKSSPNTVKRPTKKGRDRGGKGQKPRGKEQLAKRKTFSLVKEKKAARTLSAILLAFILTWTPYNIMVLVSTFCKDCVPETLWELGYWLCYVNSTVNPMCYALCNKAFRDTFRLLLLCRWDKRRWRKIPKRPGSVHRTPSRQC
Description: Cells were plated in 6 well culture plates and used at the age of 3–5 days after plating. […] Cells exposed to medium alone are referred as controls.
Cell supernatants were collected into Eppendorff tubes containing a cocktail of protease inhibitors (5 units/ml aprotinin, […], […] and 10^−4M Phenylmethylsulfonylfluoride (PMSF, a protease inhibitor); Sigma, USA). The collected media were concentrated with Centricon tubes (Amicon, Beverly, Mass., USA) and kept frozen for α-APPs secretion determination. Equal amounts of protein (50–100 μg) were loaded and separated on 10% sodium dodecyl sulfate-polyacrylamide gel electrophoresis (SDS-PAGE). Followed by western blotting onto nitrocellulose membrane, blocked by fat-free milk, and probed for 24 hours at 4° C., with anti-Alzheimer's precursor protein, A4 monoclonal antibody 22C11 (0.25 μg/ml; Boehringer Mannheim, Germany). The nitrocellulose membranes were washed and incubated for 2 hours at room temperature with peroxidase-linked goat anti-mouse IgG antibodies (Jackson Immunoresearch, USA), followed by extensive washout and staining with enhanced chemiluminescence detection system (Amersham). Quantitative evaluation of the immunoreactive bands, on the exposed films, was performed by video-imaging densitometry (Gel-aid software; Galai Co., Israel). APPs levels were expressed as x-fold increase over basal levels.

[1] = system: Rat pheochromocytoma cells transfected with M1 mAChR; assay: Neurite outgrowth response; format: cell-based; details: for Emax: Rattus norvegicus, read-out: Maximal response, percent of cells with neurites
Description: Rat pheochromocytoma cells transfected with M1 mAChR cells were grown as described in Gurwitz et al, (NeuroReport 6, 485,1995). For determination of neurite outgrowth, cells plated in six-well plates were used 3–5 days after-plating. Growth factors were added 1 day after plating and muscarinic agonists were added for the last 24 hrs.
Cells were observed under an inverted microscope. The percent of cells with neurite longer than cell diameter were scored in three random fields of several hundred cells from each well. Results were expressed as a percent of cells with neurites. Treatments were performed in triplicate cells. Both NGF (50 ng/ml) and EGF (100 ng/ml) were added 1 day after plating. Muscarinic agonists were added 24 hours before scoring.

[2] = system: cells transfected with M1 mAChR; assay: Protection from H2O2-induced toxicity; format: cell-based, rat
[3] = Pharmacokinetic study in rats; format: in vivo; details: rat; for biovailability in rats: in vivo; for AUC(0-inf) / Cmax / MRT / Tmax / half-life: plasma, Rats
Description: The results of the PK profile of AF292 in rats and Beagle dogs (overnight fasting; drug administered in water solution; gavage) are listed in Table 1.

trihexyphenidyl rats = assay: Passive avoidance in trihexyphenidyl-treated rats; format: in vivo, Wistar rats; details: for Effect on passive avoidance: AF292 0.03, 0.05, 0.1, 0.3, 0.5 mg/kg p.o., AF267B 0.5, 1, 5; for MED: p.o.; for Retention latency: 24 h
Description: Trihexyphenidyl is a selective M1 muscarinic antagonist that crosses the blood brain barrier and induces memory and learning impairments (Bymaster et al. J Pharmacol Exp Ther 267: 16–24, 1993. Roldan et al Neurosci. Lett. 230: 93–96, 1997; Kimura et al Brain Res. 834: 6–12, 1999).
Naive Wistar rats were used in the experiments below. The passive avoidance (PA) task is comprised of training (acquisition) phase and a retention phase. In the training procedure each rat was individually placed in the small illuminated compartment and after 60 sec. of familiarization/adaptation, the door to the large compartment was opened and the latency to enter was measured (Initial Latency). Immediately following entry into the dark compartment, the door was closed and inescapable foot shock (0.6 mA for 3 sec) was delivered through the grid floor. A cutoff point of 180 sec was used for initial latency. […] After the acquisition trial the rat was returned to its home cage. Retention of the passive avoidance task was measured 24 h later, by again placing the rat in the light compartment and after a 60 sec adaptation interval, the door was opened and the latency to re-enter the dark compartment was measured. A cutoff point of 300 sec was used for retention latency.

[4] = system: Rat pheochromocytoma cells transfected with M1 mAChR; format: cell-based; details: for Cell death induced by β-A25-35: β-A25-35 (1 μM), 24 hrs, serum-deprived
Description: Confluent rat pheochromocytoma cells transfected with the M1 mAChR cultures were detached with trypsin, washed and plated in 24-well, 6-well, 60-mm or 100-mm plates that were precoated with rat tail collagen (Sigma, Israel). Several experiments were performed in serum-free medium. For 3-(4,5-dimethylthiazol-2-yl)-2,5-diphenyl-tetrazolium bromide (MTT) assay, cells (1.5×10^4) were plated in 96-well collagen-precoated plates, in serum-free medium, with or without various drugs for 24 hours. For differentiation, cells were grown in the presence of 1% FCS and 1% HS, with addition of 50 ng/ml NGF for 7 days, to cause full differentiation. […] After 7 days, cells were washed and the medium was either replaced to serum-free, or cells were detached and replated in serum-free medium. Cells in serum-free medium were treated either with Aβ peptides that were previously “aged” or with H2O2. Tested compounds were added together with the insults for the indicated time, unless otherwise stated.
Cells were plated in 96-well plates in 100 μl medium. After exposure to various treatments, 10 μl of 5 mg/ml MTT [3-(4,5-dimethylthiazol-2-yl)-2,5-diphenyl-tetrazolium bromide; Sigma, Israel] solution in phosphate-buffered saline (PBS) was added to each well. Plates were incubated for 2 hrs at 37° C. followed by hydrocholoric acid-isopropanol addition (100 μl of 0.04N HCl/isopropanol). Plates were read using ELISA reader at a wavelength of 570 nm.
The MTT assay measures primary early changes within the cells, reflecting the integrity of the electron transport chain and provides a readout of cellular redox activity. This test is a specific, early indicator of the mechanism of β-amyloid-mediated cell death and can be used to detect rapid inhibitory response.

[5] = oral, extrapolated for 10 mg/kg

| Compound | EC50 (M1 mAChR) [µM] | Emax (M1 mAChR) [%] | Protection from H2O2-induced toxicity [2] | biovailability in rats [3] [%] | Effect on passive avoidance (trihexyphenidyl rats) | MED (trihexyphenidyl rats) | MTT assay against Aβ 25–35 & H2O2 in cell cultures transfected with rat M1 mAChR [4] | Cell death induced by β-A25-35 [4] | Emax [1] [%] | further results |
| --- | --- | --- | --- | --- | --- | --- | --- | --- | --- | --- |
| CC[C@@H]1SC2(CCNCC2)NC1=O [AF292, (S)-2-Ethyl-1-thia-4,8-diaza-spiro[4.5]decan-3-one] | 3 | 100 | protect the cells | 49 | positive effects | < 0.03 mg/kg | Equipotent with AF267B & CCh at 100 μM; Even | significantly attenuated |  | α-APPs secretion, comparison in words (M1 mAChR): as effective as AF267B; also recorded: Equipotent with AF267B &; Neurotrophic effect ([1]; blocked by atropine): neurotrophic; AUC(0-inf) ([3]; po, 10 mg/kg): 2150 ng·h/mL; Cmax ([3]; po, 10 mg/kg): 1910 ng/mL; MRT ([3]; po, 10 mg/kg): 90 min; Tmax ([3]; po, 10 mg/kg): 30 min; half-life ([3]; po, 10 mg/kg): 59.4 min; Duration of action (trihexyphenidyl rats; rat, in vivo): LONG DURATION OF ACTION; Potency among the tested agonists (trihexyphenidyl rats; rat, in vivo): most potent compound among the tested agonists |
| CC1=NCC2(CCN(C)CC2)S1 [AF150(S), 2,8-Dimethyl-1-thia-3,8-diaza-spiro[4.5]dec-2-ene] |  | 50 | protect the cells | 31 |  |  |  | significantly attenuated | 30 | Retention latency (trihexyphenidyl rats; 5 mg/kg p.o.): 222 ± 25.6 s |
| CC[C@@H]1SC2(CCN(C)CC2)NC1=O [AF267B, (S)-2-ethyl-8-methyl-1-thia-4,8-diaza-spiro[4.5]decan-3-one] | 3 | 100 | protect the cells |  | 0.5, 1, 5 positive effects | MED 0.1–0.5 mg/kg, p.o. | 100% | significantly attenuated | 60 | α-APPs secretion, % of maximal response of carbachol (M1 mAChR): equal to maximal response of carbachol; α-APPs secretion, fold increase over control (M1 mAChR; 10^−4M, maximal increase): about 6 fold; AUC(0-inf) [3, 5]: 1550 ng·h/mL; Cmax [3, 5]: 1700 ng/mL; AUC(0-inf) ([3]; po, 5 mg/kg): 773 ng·h/mL; Cmax ([3]; po, 5 mg/kg): 852 ng/mL; MRT ([3]; po, 5 mg/kg): 60 min; Tmax ([3]; po, 5 mg/kg): 15 min; half-life ([3]; po, 5 mg/kg): 38.4 min; Retention latency (trihexyphenidyl rats; 0.5 mg/kg p.o.): 181.1 ± 35.4 s; Retention latency (trihexyphenidyl rats; 1 mg/kg p.o.): 290.1 ± 8.5 s |
